Results on 6 compounds are retold here after article PMC4232510, “Identification of Functionally Important Residues of the Rat P2X4 Receptor by Alanine Scanning Mutagenesis of the Dorsal Fin and Left Flipper Domains” (PLoS ONE, 2014).

Common to all, as to type: cell-based
In one assay the target is T1, rP2X4R T281A mutant (Rattus norvegicus, UniProt P51577, T281A).
T1 construct: expressed in transfected cells; host or cells: HEK293T
T1 sequence (P51577 1-388 T281A): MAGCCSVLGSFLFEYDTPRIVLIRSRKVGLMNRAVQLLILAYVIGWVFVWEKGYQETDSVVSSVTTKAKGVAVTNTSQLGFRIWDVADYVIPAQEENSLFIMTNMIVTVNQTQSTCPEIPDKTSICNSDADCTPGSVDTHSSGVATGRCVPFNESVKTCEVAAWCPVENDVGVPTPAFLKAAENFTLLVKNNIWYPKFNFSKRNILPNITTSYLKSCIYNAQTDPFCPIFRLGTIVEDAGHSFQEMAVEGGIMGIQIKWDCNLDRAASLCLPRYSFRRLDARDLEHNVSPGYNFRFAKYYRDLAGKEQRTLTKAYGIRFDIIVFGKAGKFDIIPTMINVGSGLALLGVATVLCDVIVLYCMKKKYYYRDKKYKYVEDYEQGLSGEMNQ
Briefly: whole-cell patch clamp, HEK293T cells expressing mutant. The note with it: for relative responsiveness: 100 µM agonist 2 s, relative to ATP (100%). On the procedure:
(§1) To express the recombinant channels, we used human embryonic kidney (HEK) 293T cells (American Type Culture Collection, Rockville, MD, USA) grown in Dulbecco modified Eagle’s medium (Thermo Fisher Scientific, Waltham, MA) supplemented with 10% fetal bovine serum (Sigma-Aldrich, St Louis, MO), 50 U/ml penicillin and 50 µg/ml streptomycin (both Thermo Fisher Scientific, Waltham, MA) in a humidified 5% CO2 and 95% air at 37°C. Cells were cultured in 75 cm^2 plastic culture flasks (NUNC, Rochester, NY) for 36–72 hours until reaching 80–95% confluence. Before the day of transfection, the cells were plated on 35 mm culture dishes (Sarstedt, Newton, NC) and incubated at 37°C for at least 24 h. Transfection was done using 2 µg of either WT or mutant receptor DNA with 2 µl of JetPrime reagent in 2 ml of Dulbecco modified Eagle’s medium, according to manufacturer’s instructions (PolyPlus-transfection, Illkirch, France). Transfected cells were identified by the fluorescence signal of EGFP using the Olympus IX71 inverted research microscope with fluorescence illuminators (Model IX71; Olympus, Melville, NY).
(§2) cDNAs encoding the sequences of the rP2X4 and mutated subunits were subcloned into the pIRES2-EGFP vector (Clontech, Mountain View, CA, USA). To generate the mutants, oligonucleotides (synthesized and provided by VBC-Genomics, Vienna, Austria or Sigma Aldrich) containing specific mutagenesis mismatches were introduced into the rP2X4/pIRES2-EGFP template using PfU Ultra DNA polymerase (Thermo Fisher Scientific). A High-Speed Plasmid Mini Kit (Geneaid, Taipei City, Taiwan) was used to isolate the plasmids for transfection. Dye terminator cycle sequencing (ABI PRISM 3100, Applied Biosystems, Foster City, CA) was used to identify and verify the presence of the mutations. The sequencing was performed by the DNA Sequencing Laboratory, Institute of Microbiology, ASCR, Prague.
(§3) ATP-induced currents were recorded from whole cells clamped to −60 mV using an Axopatch 200B patch-clamp amplifier (Axon Instruments, Union City, CA). The recordings were captured and stored using the Digidata 1322A and pClamp9 software package (Axon Instruments). During the experiments, the cell culture was perfused with a bath solution containing: 142 mM NaCl, 3 mM KCl, 2 mM CaCl2, 1 mM MgCl2, 10 mM 4-(2-Hydroxyethyl)piperazine-1-ethanesulfonic acid (HEPES) and 10 mM D-glucose, adjusted to pH 7.3 with 1 M NaOH. The patch electrodes were filled with a solution containing: 154 mM CsCl, 11 mM EGTA and 10 mM HEPES, adjusted to pH 7.2 with 1.6 M CsOH. The whole-cell configuration was used to abolish the influence of natively present metabotropic receptors for ATP and we used intracellular cesium to block any kind of possible background potassium conductance. Potency of ATP was measured based on the activation of naïve (not previously stimulated) receptors using a short (2–5 s) application of various concentrations of ATP. The results are expressed as molar concentration of ATP required to produce 50% of the maximal response (EC50). One or two responses were recorded from one cell, if not otherwise stated, and responses from different cells were pooled. The maximum current amplitude (Imax) was measured in response to application of supramaximal concentrations (100–1000 µM) of ATP. Responsiveness to P2XR agonists 2-MeS-ATP, ATPγS, BzATP, and α,β-meATP, all applied in 100 µM concentration, was expressed as percentage of response in comparison to 100 µM ATP treatment for selected mutants. In all mutants, the whole cell currents were also measured in the presence of 3 µM IVM, which was dissolved in dimethyl sulfoxide, stored in stock solutions at 10 mM, and diluted to required concentrations in bath solution in the day of experiment. The control and drug containing solutions were applied via a rapid (exchange time 30–40 ms) perfusion system (RSC-200, BIOLOGIC, Claix, France). All other chemicals are from Sigma-Aldrich. […]

The target in another assay is T2, rP2X4R L206A mutant (Rattus norvegicus, UniProt P51577, L206A).
T2 construct: expressed in transfected cells; host or cells: HEK293T
T2 sequence (P51577 1-388 L206A): T1 sequence (P51577 1-388 T281A) with L206A, A281T
The description is as above. The note with it: for relative responsiveness: 100 µM agonist 2 s, relative to ATP (100%). On the procedure:
as §1, §2, §3

For another assay, the target named is T3, wild type (WT) rP2X4R (Rattus norvegicus, UniProt P51577).
T3 construct: expressed in transfected cells; host or cells: HEK293T
T3 sequence (P51577 1-388): T1 sequence (P51577 1-388 T281A) with A281T
The assay can be described thus: whole-cell patch clamp, HEK293T cells expressing WT receptor. The note with it: for relative responsiveness: 100 µM agonist 2 s, relative to ATP (100%); for EC50: naïve receptors, 2–5 s application. On the procedure:
as §1, §2, §3
(In general: Patch clamp records ionic current or voltage across a cell membrane.)

[1] abbreviates: 100 µM ATP 60 s, biexponential fit.
[2] abbreviates: contribution of τdes2, 100 µM ATP 60 s.
Where [3] appears, read: decay after removal of 1 or 3 µM ATP, 3 µM IVM.
Where [4] appears, read: naïve receptors, 2–5 s application.
Setting [5] is: 3 µM IVM 4-6 min vs IVM-untreated.

Where a chain is given by its changes, count along the chain named. Where “and” joins values, the source holds several entries; their conditions need not be identical. Identical values can stand only once.

One may read the EC50 as the concentration at which the effect is half-maximal. On to “2′(3′-O-(4-Benzoylbenzoyl)adenosine 5′-triphosphate [BzATP]”, for which the relative responsiveness is 26.7±3.9% at rP2X4R T281A mutant; 33.7±8.0% at rP2X4R L206A mutant; 38% and 38.2±3.4% at wild type (WT) rP2X4R. Besides, the midpoint of the response on wild type (WT) rP2X4R, the EC50, lay at 11.1 ± 2.9 µM.
On to `CSc1nc(N)c2ncn([C@@H]3O[C@H](COP(=O)(O)OP(=O)(O)OP(=O)(O)O)[C@@H](O)[C@H]3O)c2n1` [2-MeS-ATP, 2-(Methylthio)adenosine 5′-triphosphate], for which the relative responsiveness is 69.6±5.1% at rP2X4R T281A mutant; 68.3±6.5% at rP2X4R L206A mutant; 67% and 67.3±4.6% on wild type (WT) rP2X4R. For the same compound, a half-maximal effect on wild type (WT) rP2X4R (EC50) was put at 7.9 ± 1 µM.
Consider `Nc1ncnc2c1ncn2[C@@H]1O[C@H](COP(=O)(O)OP(=O)(O)OP(=O)(O)O)[C@@H](O)[C@H]1O` [ATP], for which the τdes1 at rP2X4R T281A mutant (setting [1]) was 2.4 ± 0.4 s; on rP2X4R L206A mutant (setting [1]), 1.1 ± 0.2 s; on wild type (WT) rP2X4R (setting [1]), 1.3 ± 0.2 s. The τdes2 at rP2X4R T281A mutant (setting [1]) is 15.6 ± 2.3 s; at rP2X4R L206A mutant (setting [1]), 8.9 ± 2.2 s; at wild type (WT) rP2X4R (setting [1]) it was 9.0 ± 0.7 s. The Imax on rP2X4R T281A mutant (100–1000 µM ATP) is on record as 2.3 ± 0.3 nA; on rP2X4R L206A mutant (100–1000 µM ATP), 2.4 ± 0.3 nA; at wild type (WT) rP2X4R (100–1000 µM ATP), 2.2 ± 0.2 nA. The “Imax+IVM” value is listed as 4.8 ± 0.9 nA on rP2X4R T281A mutant (ATP after 3 µM IVM 4-6 min), 4.8 ± 0.8 nA at rP2X4R L206A mutant (ATP after 3 µM IVM 4-6 min) and 3.4 ± 0.3 nA on wild type (WT) rP2X4R (ATP after 3 µM IVM 4-6 min). The “A2 /(A1+A2)” value is 72 ± 12% on rP2X4R T281A mutant (setting [2]), 70 ± 4% at rP2X4R L206A mutant (setting [2]) and 63 ± 3% on wild type (WT) rP2X4R (setting [2]). The “τoff +IVM” value at rP2X4R T281A mutant (setting [3]) was found to be 13 ± 1.0 s; on rP2X4R L206A mutant (setting [3]) it was 9.0 ± 1.4 s; at wild type (WT) rP2X4R (setting [3]) it was 21 ± 1.0 s. Further, the results for the 50% effective concentration (EC50) on rP2X4R T281A mutant (setting [4]), on rP2X4R L206A mutant (setting [4]) and on wild type (WT) rP2X4R were 8.2 ± 2.8 µM, 10 ± 4.1 µM and 2.3 ± 0.4 µM, respectively. In addition, the τdes on rP2X4R T281A mutant (weighted, 100 µM ATP 60 s) stood at 12 ± 2.4 s; at rP2X4R L206A mutant (weighted, 100 µM ATP 60 s), 6.3 ± 1.6 s; at wild type (WT) rP2X4R (weighted, 100 µM ATP 60 s), 6.0 ± 0.4 s. The relative responsiveness on wild type (WT) rP2X4R was 100%.
Take `Nc1ncnc2c1ncn2[C@@H]1O[C@H](CO[P@](=O)(O)O[P@](=O)(O)O[P@@](=O)(O)S)[C@@H](O)[C@H]1O` [ATPγS, Adenosine 5′-(γ-thio)triphosphate]: the relative responsiveness on rP2X4R T281A mutant is 50.2±5.9%; on rP2X4R L206A mutant, 39.6±8.4%; on wild type (WT) rP2X4R it was 50% and 49.6±3.5%. This compound also came in with a half-maximal effective concentration (EC50) on wild type (WT) rP2X4R of 8.4 ± 1.8 µM.
On to `CC[C@H](C)[C@H]1O[C@]2(CC[C@@H]1C)C[C@@H]1C[C@@H](C/C=C(\C)[C@@H](O[C@H]3C[C@H](OC)[C@@H](O[C@H]4C[C@H](OC)[C@@H](O)[C@H](C)O4)[C@H](C)O3)[C@@H](C)/C=C/C=C3\CO[C@@H]4[C@H](O)C(C)=C[C@@H](C(=O)O1)[C@]34O)O2` [IVM, ivermectin], for which the “Fold incr. Imax” value on rP2X4R T281A mutant (setting [5]) stood at 2.1 ± 0.2 fold; on rP2X4R L206A mutant (setting [5]) it was 1.7 ± 0.2 fold; at wild type (WT) rP2X4R (setting [5]), 1.7 ± 0.2 fold.
Consider `Nc1ncnc2c1ncn2C1OC(COP(=O)(O)CP(=O)(O)OP(=O)(O)O)C(O)C1O` (stereo not drawn) [α,β-meATP, α,β-methyleneadenosine 5′-triphosphate], for which the relative responsiveness at rP2X4R T281A mutant was 28.2±5.5%; on rP2X4R L206A mutant it was 27.5±2.5%; on wild type (WT) rP2X4R, 32% and 31.8±3.3%. The compound also gave a half-maximal effective concentration (EC50) at wild type (WT) rP2X4R of 62 ± 18 µM.
